The text below walks through data of PMC4831050 (Journal of natural products, 2016).

Data set [1] is described as follows: Stability in solution. It counts as physicochemical. Conditions: room temperature.
In data set [2] the test system is L. donovani promastigotes. The experiment in a line: In vitro killing of L. donovani promastigotes. To be noted: Leishmania donovani, 72 h, read-out: L. donovani promastigotes IC50. It counts as cell-based, Leishmania donovani (strain LV 82).
Data set [3] in a line: In vitro cytotoxicity, sulforhodamine B. The class given is cell-based. Conditions: human.
Data set [4] deals with human farnesyl diphosphate synthase (FPPS). To be noted: cited from earlier work.
Data set [5] has as its system L. donovani promastigotes. Conditions: isolated from other plant species; cited from earlier work.
The test system of data set [6] is trypanosomal farnesyl diphosphate synthase (FPPS). To be noted: cited from earlier work.
For data set [7] the following is noted: cited from earlier work.
Where [8] appears, read: HT-29 colorectal carcinoma cells.

≈ marks a conversion by molar mass, not a printed value. Some results are limits rather than exact numbers.

As for `Cc1ccc2c3c1CCCC(C)(C)C3C(=O)C(C(C)C)=C2` (racemic) [Compound 4, (±)-11-dehydroxymicrostegiol], the stability in solution entry in data set [1] is “stable in solution at room temperature”.

One may read the IC50 as the point on the concentration scale where inhibition reaches its midpoint. Turning to `COCC(=O)[C@H]1C(C)(C)CCC[C@]1(C)C1=C(O)C(=O)C(C(C)C)=CC1=O` [Compound 2, (1′S,2′S)-6-hydroxy-4-isopropyl-2′-(2-methoxyacetyl)-1′,3′,3′-trimethyl-[1,1′-bi(cyclohexane)]-3,6-diene-2,5-dione], the IC50 in data set [2] came out at 2.5 mg/L (≈ 6.9 µM). In data set [3] (setting [8]), this compound registered an IC50 at 72 h of 1.6 mg/L (≈ 4.41 µM).

`CC(C)C1=CC2=CC(=O)[C@H]3C(C)(C)CCC[C@]3(C)C2=C(O)C1=O` [Compound 10, taxodione]: the IC50 in data set [2] was determined as 0.5 mg/L (≈ 1.59 µM). This compound returned an IC50 at 72 h in data set [3] (setting [8]) of 0.8 mg/L (≈ 2.54 µM). Moreover, the “inhibition of human farnesyl diphosphate synthase (FPPS)” value in data set [4] was “inhibitor”. In addition, in data set [5], the “antileishmanial activity against L. donovani promastigotes in vitro” value is recorded as “potent antileishmanial agent”. The “inhibition of trypanosomal farnesyl diphosphate synthase (FPPS)” value in data set [6] is listed as “inhibitor”.

Turning to `CC(C)c1cc2c(cc1O)[C@@]1(C)CCCC(C)(C)[C@@H]1CC2` [Compound 12, ferruginol], the IC50 in data set [2] worked out at 13.1 mg/L (≈ 45.7 µM). This compound came in with an IC50 at 72 h in data set [3] (setting [8]) of 11.3 mg/L (≈ 39.4 µM). Further, the “reported antioxidant and gastroprotective activity” value in data set [7] is “bioavailable antioxidant and gastroprotective agent”.

Consider `CC(C)c1cc2c(cc1O)[C@@]1(C)CCCC(C)(C)[C@@H]1[C@@H](O)C2=O` [Compound 14, 6α-hydroxysugiol], for which, in data set [2], the IC50 was 7.8 mg/L (≈ 24.6 µM). In data set [3] (setting [8]), this compound had an IC50 at 72 h of 11.4 mg/L (≈ 36 µM).

In the case of `CC(C)c1cc2c(c(O)c1O)[C@@]1(C)CCCC(C)(C)C1=C(O)C2=O` [Compound 16, 14-deoxycoleon U], the IC50 in data set [2] is above 20 mg/L. In data set [3], the IC50 at 72 h is 4.4 mg/L (≈ 13.3 µM).
